Laboratory results taken from patent US7064124B2, “NF-κB inhibitor containing substituted benzoic acid derivative as active ingredient” (Daiichi Suntory Pharma Co., Ltd., priority 2001, dated 2006).

Legend:
[1] = tested on: carrageenin-induced foot edema in Wister male rat; test: Acute inflammation model: carrageenin foot edema, compound given orally; format: in vivo; conditions: oral 100 mg/kg immediately after carrageenin; foot volume 2 hours after carrageenin; vs vehicle group
Procedure: The foot edma ratio was calculated according to the formula: (volume of foot after administration of carrageenin−volume of foot before administration)/volume of foot before administration×100, and shown by the average of foot edma ratio +/−SE.
On the footpad of the right hind leg of a 5-week-old Wister male rat, 0.1 ml of 1 w/v % λ-carrageenin (Sigma) was subcutaneously administered. Immediately thereafter, the compound of Example 112 or the compound of Example 157 each suspended in a vehicle (0.5% HPC) was orally administered to give a dose of 100 mg/kg. As a positive control, indomethacin (sigma) was orally administered to give a dose of 10 mg/kg. The foot edema ratio was calculated according to the formula: (volume of foot 2 hours after administration of carrageenin−volume of foot before administration)/volume of foot before administration×100, using a volume meter (TK-101, manufactured by Unicom). For the comparison between the vehicle group and the drug administered group, a variance test was performed by the F-test and thereafter, Student's t test was performed when the variance was equal, or Aspin-Welch's t test was performed when the variance was not equal.

[2] = tested on: GalN/LPS-stimulated C3H/HeN female mice; test: In vivo sepsis model (GalN/LPS), compound given intraperitoneally; design: species or system mouse; conditions: i.p. 10, 30 or 100 mg/kg immediately after GalN/LPS, vs vehicle group
Procedure: A mixed solution of N-acetyl galactosamine (GalN, 20 mg, Sigma) and lipopolysaccharide (LPS, 5 μg, Sigma) was intraperitoneally administered as a stimulant to a 7-week-old C3H/HeN female mice and immediately thereafter, the compound of Example 112 suspended in a vehicle (0.5% hydroxypropyl cellulose (HPC), produced by Nippon Soda Co., Ltd.) was intraperitoneally administered to give a dose of 10 mg/kg, 30 mg/kg or 100 mg/kg. The TNF-α mRNA levels and the IL-1β mRNA levels in liver 60 minutes after the administration of stimulant each was measured by the real-time PCR method, and the TNF-α levels in plasma after 90 minutes were measured using the mouse TNF-α ELISA kit (Biosource). In the real-time PCR using PRISM7700 (PE Biosystems Japan) according to the protocol of PCR quantitative System (PE Biosystems Japan), mRNA was extracted from the liver and the TNF-α and IL-1β were detected with cDNA obtained by SuperScript Preamplification System (Lifetech Orient) as a template. For the detection, the following primers and TaqMan probes were used.
The RNA level in each sample was corrected by the expression level of glyceraldehyde 3-phosphate dehydrogenase (GAPDH) gene.
ELISA was performed according to the manual included in the kit. The comparison with the vehicle group was performed by the Dunnett's Multiple Comparison test using Stat-View (SAS Institute).

NF-κB = NF-κB luciferase reporter assay in A549/NF-κBLuc cells stimulated with IL-1β; format: cell-based, human; conditions: Homo sapiens, A549, A549/NF-κBLuc cells; compound added 1 hour before IL-1β, then 3 hours incubation; luciferase activity; read-out: NF-κB Inhibitory Activity (IC50)
Outline: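 A549 cells stably carrying an NF-κB-driven luciferase reporter (pNFκB-Luc, G418-selected) pre-treated with compound for 1 h, then stimulated with IL-1β and incubated a further 3 h. Luciferase signal used to derive IC50 for NF-κB inhibition.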

[3] = tested on: GalN/LPS-stimulated C3H/HeN female mice; test: Sepsis model (GalN/LPS), compound given orally; format: in vivo, mouse; conditions: oral 10, 30 or 100 mg/kg 10 min before GalN/LPS, vs vehicle group; for TNF-α mRNA levels in liver: liver 60 min after stimulant, real-time PCR; for TNF-α levels in plasma: plasma 90 min after stimulant, ELISA
Procedure: Similarly to Experiment 2, a mixed solution of GalN (20 mg) and LPS (2 μg) was intraperitoneally administered as a stimulant to a 7-week-old C3H/HeN female mice. Ten minutes before that, the compound of Example 112 or the compound of Example 157 each suspended in a vehicle (0.5% HPC) was orally administered to give a dose of 10 mg/kg, 30 mg/kg or 100 mg/kg. The TNF-α mRNA levels in liver 60 minutes after the administration of stimulant were measured by the real-time PCR method, and the TNF-α levels in plasma after 90 minutes were measured using the mouse TNF-α ELISA kit. The comparison with the vehicle group was performed by the Dunnett's Multiple Comparison test using Stat-View.

[4] = liver 60 min after stimulant, real-time PCR

| IC50 (NF-κB) | melting point | Structure (SMILES) | further results |
| --- | --- | --- | --- |
| 7 µg/mL | 171 to 172.5 °C | COC1=C(OC)C(=O)C(Cc2ccc(O)c(C(=O)Nc3ccncc3)c2)=C(C)C1=O [Example 157, N-(Pyridin-4-yl)-5-(5,6-dimethoxy-3-methyl-1,4-benzoquinon-2-yl)methyl-2-hydroxybenzamide] | acute inflammation (foot edema) caused by carrageenin [1]: significantly suppressed; TNF-α mRNA levels in liver [3]: suppressed dose dependently; TNF-α levels in plasma [3]: suppressed dose dependently |
| 10 µg/mL | 200.5 to 202 °C | COC1=C(OC)C(=O)C(Cc2ccc(O)c(C(=O)Nc3ccc(C(=O)OC(C)(C)C)cc3)c2)=C(C)C1=O [Example 214, tert-Butyl N-[5-(5,6-dimethoxy-3-methyl-1,4-benzoquinon-2-yl)methyl-2-hydroxybenzoyl]-4-aminobenzoate] |  |
| 10 µg/mL | 112 to 114 °C | COC1=C(OC)C(=O)C(Cc2ccc(O)c(C(=O)Nc3cccnc3OC)c2)=C(C)C1=O [Example 216, N-(2-Methoxypyridin-3-yl)-5-(5,6-dimethoxy-3-methyl-1,4-benzoquinon-2-yl)methyl-2-hydroxybenzamide] |  |
| 66 µg/mL | 130 to 132 °C | COC1=C(OC)C(=O)C(Cc2ccc(O)c(C(=O)Nc3cc(OC)ccc3OC)c2)=C(C)C1=O [Example 220, N-[5-(5,6-Dimethoxy-3-methyl-1,4-benzoquinon-2-yl)methyl-2-hydroxybenzoyl]-2,5-dimethoxyaniline] |  |
| 46 µg/mL | 178 to 180 °C | COC1=C(OC)C(=O)C(Cc2ccc(OC)c(C(=O)Nc3cccnc3Cl)c2)=C(C)C1=O [Example 221, N-(2-Chloropyridin-3-yl)-5-(5,6-dimethoxy-3-methyl-1,4-benzoquinon-2-yl)methyl-2-methoxybenzamide] |  |
| 81 µg/mL | 210 to 212.5 °C | COC1=C(OC)C(=O)C(Cc2ccc(O)c(C(=O)Nc3cccnc3N3CCOCC3)c2)=C(C)C1=O [Example 223, N-(2-Morpholinopyridin-3-yl)-5-(5,6-dimethoxy-3-methyl-1,4-benzoquinon-2-yl)methyl-2-hydroxybenzamide] |  |
| 24 µg/mL | 102.5 to 105 °C | COC1=C(OC)C(=O)C(Cc2ccc(O)c(C(=O)Nc3ccc(N4CCOCC4)nc3)c2)=C(C)C1=O [Example 225, N-(6-Morpholinopyridin-3-yl)-5-(5,6-dimethoxy-3-methyl-1,4-benzoquinon-2-yl)methyl-2-hydroxybenzamide] |  |
| 20 µg/mL | 142 to 144 °C | COC1=C(OC)C(=O)C(Cc2ccc(O)c(C(=O)Nc3ccnc(Cl)c3)c2)=C(C)C1=O [Example 227, N-(2-Chloropyridin-4-yl)-5-(5,6-dimethoxy-3-methyl-1,4-benzoquinon-2-yl)methyl-2-hydroxybenzamide] |  |
| 59 µg/mL | 209.5 to 211.5 °C | COC1=C(OC)C(=O)C(Cc2ccc(O)c(C(=O)Nc3cc(OC)ncn3)c2)=C(C)C1=O [Example 229, N-(6-Methoxypyrimidin-4-yl)-5-(5,6-dimethoxy-3-methyl-1,4-benzoquinon-2-yl)methyl-2-hydroxybenzamide] |  |
| 5 µg/mL | 233 to 235 °C | CC1=C(C)C(=O)C(Cc2ccc(O)c(C(=O)Nc3ccc(C(F)(F)F)cc3)c2)=C(C)C1=O [Example 235, N-[5-(3,5,6-Trimethyl-1,4-benzoquinon-2-yl)methyl-2-hydroxybenzoyl]-4-trifluoromethylaniline] |  |
| 5 µg/mL | 199 to 201 °C | CC1=C(C)C(=O)C(Cc2ccc(O)c(C(=O)Nc3cccnc3Cl)c2)=C(C)C1=O [Example 237] |  |

| Structure (SMILES) | IC50 (NF-κB) | melting point | further results |
| --- | --- | --- | --- |
| COC1=C(OC)C(=O)C(Cc2ccc(OC(C)=O)c(C(=O)Nc3ccc(C(F)(F)F)cc3)c2)=C(C)C1=O [Example 112, N-[5-(5,6-Dimethoxy-3-methyl-1,4-benzoquinon-2-yl)methyl-2-acetoxybenzoyl]-4-trifluoromethylaniline] | 14 µM |  | acute inflammation (foot edema) caused by carrageenin [1]: significantly suppressed; IL-1β mRNA levels in liver [2, 4]: suppressed; TNF-α mRNA levels in liver [2, 4]: suppressed dose dependently; TNF-α levels in plasma ([2]; plasma 90 min after stimulant, ELISA): suppressed dose dependently; TNF-α mRNA levels in liver [3]: suppressed dose dependently; TNF-α levels in plasma [3]: suppressed dose dependently |
| COC1=C(OC)C(=O)C(Cc2ccc(OC(C)=O)c(C(=O)Nc3cc(OC)ncn3)c2)=C(C)C1=O [Example 228, N-(6-Methoxypyrimidin-4-yl)-5-(5,6-dimethoxy-3-methyl-1,4-benzoquinon-2-yl)methyl-2-acetoxybenzamide] | 64 µg/mL | 138.5 to 141 °C |  |
